Reference: US12552825B2 (Zikani Therapeutics, Inc., priority 2019, dated 2026)
Values after ≈ are worked out from the molar mass of the structure shown.

Experiments:
Format in all cases: cell-based
A. baumannii MP-15 = assay: MIC determination by CLSI broth dilution, A. baumannii MP-15; conditions: Acinetobacter baumannii, MP15, strain MP-15, read-out: MIC A. baumanii MP-15
K. pneumoniae MP-546 = assay: MIC determination by CLSI broth dilution, K. pneumoniae MP-546; conditions: Klebsiella pneumoniae, MP546, CLSI broth dilution; strain MP-546
P. aeruginosa MP-3 = assay: MIC determination by CLSI broth dilution, P. aeruginosa MP-3; conditions: Pseudomonas aeruginosa, MP3, strain MP-3
S. aureus MP-12 = assay: microbe, parasite or virus in culture; conditions: Staphylococcus aureus, MP12, read-out: MIC S. aureus MP-12
E. coli MP-4 = assay: MIC determination by CLSI broth dilution, E. coli MP-4; conditions: Escherichia coli, MP4, CLSI broth dilution; strain MP-4
K. pneumoniae MP-648 = assay: MIC determination by CLSI broth dilution, K. pneumoniae MP-648; conditions: Klebsiella pneumoniae, MP648, CLSI broth dilution; strain MP-648

| SMILES | MIC (A. baumannii MP-15) [µg/mL] | MIC (K. pneumoniae MP-546) [µg/mL] | MIC (P. aeruginosa MP-3) [µg/mL] | MIC (S. aureus MP-12) [µg/mL] | MIC (E. coli MP-4) [µg/mL] | MIC (K. pneumoniae MP-648) [µg/mL] |
| --- | --- | --- | --- | --- | --- | --- |
| CO[C@]1(C)C[C@@H](C)CN(C)[C@@H](CN2CCN(S(=O)(=O)N(C)C)CC2)[C@H](C)OC(=O)C(C)(C)C(=O)[C@H](C)[C@H]1O[C@@H]1O[C@H](C)C[C@H](N(C)C)[C@H]1O [Compound 142, 4-(((2S,3S,6R,8R,9R,10R)-9-(((2S,3R,4S,6R)-4-(dimethylamino)-3-hydroxy-6-methyltetrahydro-2H-pyran-2-yl)oxy)-8-methoxy-2,4,6,8,10,12,12-heptamethyl-11,13-dioxo-1-oxa-4-azacyclotridecan-3-yl)methyl)-N,N-dimethylpiperazine-1-sulfonamide] | > 32 | > 32 | > 32 | 4 to 32 (≈ 5.56 to 44.4 µM) | > 32 |  |
| CO[C@]1(C)C[C@@H](C)CN(C)[C@H](/C=C/CN2Cc3cccnc3C2)COC(=O)C(C)(C)C(=O)[C@H](C)[C@H]1O[C@@H]1O[C@H](C)C[C@H](N(C)C)[C@H]1O [Compound 152] | > 32 |  | > 32 | 4 to 32 (≈ 6.07 to 48.6 µM) | < 4 | 4 to 32 (≈ 6.07 to 48.6 µM) |
| CO[C@]1(C)C[C@@H](C)CN(C)[C@H](/C=C/CN2CCCC2)COC(=O)C(C)(C)C(=O)[C@H](C)[C@H]1O[C@@H]1O[C@H](C)C[C@H](N(C)C)[C@H]1O [Compound 153] | > 32 |  | > 32 | 4 to 32 (≈ 6.56 to 52.5 µM) | < 4 | < 4 |
| CCN1CCN(C[C@H]2COC(=O)C(C)(C)C(=O)[C@H](C)[C@@H](O[C@@H]3O[C@H](C)C[C@H](N(C)C)[C@H]3O)[C@](C)(OC)C[C@@H](C)CN2C)CC1 [Compound 155, (3S,6R,8R,9R,10R)-9-(((2S,3R,4S,6R)-4-(dimethylamino)-3-hydroxy-6-methyltetrahydro-2H-pyran-2-yl)oxy)-3-((4-ethylpiperazin-1-yl)methyl)-8-methoxy-4,6,8,10,12,12-hexamethyl-1-oxa-4-azacyclotridecane-11,13-dione] | > 32 |  | > 32 | 4 to 32 (≈ 6.38 to 51 µM) | < 4 | 4 to 32 (≈ 6.38 to 51 µM) |
| CO[C@]1(C)C[C@@H](C)CN(C)[C@@H](CN2CCN(C(C)C)CC2)COC(=O)C(C)(C)C(=O)[C@H](C)[C@H]1O[C@@H]1O[C@H](C)C[C@H](N(C)C)[C@H]1O [Compound 156, (3S,6R,8R,9R,10R)-9-(((2S,3R,4S,6R)-4-(dimethylamino)-3-hydroxy-6-methyltetrahydro-2H-pyran-2-yl)oxy)-3-((4-isopropylpiperazin-1-yl)methyl)-8-methoxy-4,6,8,10,12,12-hexamethyl-1-oxa-4-azacyclotridecane-11,13-dione] | > 32 |  | > 32 | 4 to 32 (≈ 6.24 to 49.9 µM) | < 4 | 4 to 32 (≈ 6.24 to 49.9 µM) |
| CCN1C[C@H](C)C[C@@](C)(OC)[C@H](O[C@@H]2O[C@H](C)C[C@H](N(C)C)[C@H]2O)[C@@H](C)C(=O)C(C)(C)C(=O)OC[C@@H]1CN1CCN(C)CC1 [Compound 157, (3S,6R,8R,9R,10R)-9-(((2S,3R,4S,6R)-4-(dimethylamino)-3-hydroxy-6-methyltetrahydro-2H-pyran-2-yl)oxy)-4-ethyl-8-methoxy-6,8,10,12,12-pentamethyl-3-((4-methylpiperazin-1-yl)methyl)-1-oxa-4-azacyclotridecane-11,13-dione] | > 32 |  | > 32 | 4 to 32 (≈ 6.38 to 51 µM) | < 4 | 4 to 32 (≈ 6.38 to 51 µM) |
| CCN1CCN(C[C@H]2COC(=O)C(C)(C)C(=O)[C@H](C)[C@@H](O[C@@H]3O[C@H](C)C[C@H](N(C)C)[C@H]3O)[C@](C)(OC)C[C@@H](C)CN2CC)CC1 [Compound 158, (3S,6R,8R,9R,10R)-9-(((2S,3R,4S,6R)-4-(Dimethylamino)-3-hydroxy-6-methyltetrahydro-2H-pyran-2-yl)oxy)-4-ethyl-3-((4-ethylpiperazin-1-yl)methyl)-8-methoxy-6,8,10,12,12-pentamethyl-1-oxa-4-azacyclotridecane-11,13-dione] | > 32 |  | > 32 | 4 to 32 (≈ 6.24 to 49.9 µM) | < 4 | 4 to 32 (≈ 6.24 to 49.9 µM) |
